The text below walks through data of patent US7582786B2, “Synthetic catalytic free radical scavengers useful as antioxidants for prevention and therapy of disease” (Eukarion Inc., priority 1996, dated 2009).

One data set relates to brain homogenates. Description: Iron-induced lipid peroxidation in brain homogenates (MDA). The class given is biochemical, rat. Here is the method:
Lipid peroxidation was induced by incubating a mixture consisting of 0.25 ml homogenate, 0.25 ml ASCF with test compounds, and 10 μM FeCl2 for 1 hr at 35° C. under an atmosphere equilibrated with O2:CO2(95:5). Following the incubation, 0.1 ml of the sample was extracted with trichloroacetic acid and analyzed for thiobarbituric acid reactive material as described previously, using authentic malonyldialdehyde (MDA) as a standard.

Data set [1] can be described thus: Peroxidase activity, H2O2-dependent oxidation of ABTS (Example 2). The settings on record: for Peroxidase rate: 10 μM salen manganese complex, 0.2 mM H2O2; for Peroxidase: relative to C7 (C7 = 100). Format: biochemical. As for the experimental part: Peroxidase activity was assayed by monitoring the hydrogen peroxide-dependent oxidation of 2,2′-azino-bis(3-ethylbenzthiazoline-6) sulfonic acid (ABTS) spectrophotometrically. Standard assay mixtures consisted of 50 mM sodium phosphate, pH 8.1, 0.9% sodium chloride, 0.5 mM ABTS, and H2O2 and salen manganese complex as indicated. Where indicated, 50 mM sodium phosphate buffers of pH 6.0 or pH 7.1 were substituted. Assays were conducted at 27±0.2° C. ABTS oxidation was monitored at 740 or 500 nm to eliminate interference by the salen manganese complexes, many of which absorb in the vicinity of the λmax of oxidized ABTS, and to avoid absorbance values that exceeded the linear range of the spectrophotometer. The amount of oxidized ABTS was estimated using an Δε740 of 20,300 M^−1cm^−1 or an Δε500 of 3400 M^−1cm^−1 calculated based upon the published molar extinction coefficient oat 405 nm (36,800).
(§1) Catalase and peroxidase activities were assayed as described in Example 2. Catalase assays contained 10 μM salen-manganese complex and 10 mM hydrogen peroxide. Peroxidase assays contained 10 μM salen-manganese complex and 0.2 mM hydrogen peroxide. Glucose-glucose oxidase toxicity assays were performed using human dermal fibroblasts as described in Example 2.

For data set [2], the system named is Human dermal fibroblasts (HF cells). Description: Cell protection assay, tert-butylhydroperoxide (t-BHP) toxicity, XTT. Format: cell-based. Conditions: for Cell viability, absorbance at 490 nm uncorrected for blank: t-BHP 0.5 mM. As for the experimental part:
(§2) Human dermal fibroblasts (HF cells) were obtained from the American type tissue Culture Collection at passage 1 and cultured and propagated in a medium (HF medium) consisting of Dulbecco's Modified Eagle's Medium with 4.5 g/l D-glucose, 10% calf serum 4 mM glutamine, 50 units/ml penicillin, and 50 μg/ml streptomycin in a 37° C. humidified incubator equilibrated with 5% CO2. Cells were used at passages 5 or 6 for experiments. For cell protection assays, HF cells were seeded at a density of about 15,000 cells per cm2 onto 96-well culture plates and allowed to grow to confluence. To assess protection tert-butylhydroperoxide (t-BHP) toxicity, confluent cell layers were first treated with the indicated concentrations of test compounds dissolved in HF medium for 18 hr. The medium was then replaced with fresh medium containing test compounds and 0.5 mM tert-butylhydroperoxide (t-BHP) and cells were incubated for another 18 hr. The medium was then removed and replaced with fresh HF medium (100 μl per well) without test compounds or t-BHP. Fifty μl of XTT reagent (Boeringer Mannheim, Inc.), prepared as described by the manufacturer, was then added to each well and the plates returned to the incubator. After 2 hr., the absorbance at 490 nm was measured in a BioRad (Richmond, Calif.) Model 3550 plate-reader, using a reference wavelength of 655 nm. Control cells that had not been exposed to test compounds or toxic agents were included among the samples treated with XTT reagent. Absorbance measurements for blank wells, containing HF medium and XTT reagent but no cells, were also determined. To analyze protection from glucose/glucose oxidase toxicity, confluent cell layers were incubated with HF medium containing glucose oxidase (0.019 units/ml) along with test compounds, as indicated, for 18 hr in the tissue culture incubator. Fresh HF medium was then added and cell viability assessed using the XTT reagent as described above. For both these models, concentrations of toxic agents were selected that were reproducibly completely lethal. Cytotoxicity assessments were routinely confirmed by visual inspection of the cell layers prior to addition of the XTT reagent.
Background: Tetrazolium assays rely on reduction of a dye to a coloured formazan, in cell work by metabolically active cells.

Data set [3] has the same test system. Description: Cell protection assay, glucose/glucose oxidase toxicity, XTT. The class given is cell-based. As for the experimental part: as §2, §1
Data set [4] can be described thus: Catalase activity, conversion of H2O2 to oxygen, polarographic oxygen electrode (Example 2). The class given is biochemical. Here is the method: Catalase activity was assayed by monitoring the conversion of H2O2 to oxygen using a Clark-type polarographic oxygen electrode. The apparatus consisted of a Mini Clark Style electrode, a 600 μl Oxygen Uptake Chamber, and a Chemical Microsensor system, all obtained from Diamond General Corporation (Ann Arbor, Mich.). The electrode was calibrated by immersion in nitrogen- or air-equilibrated buffers using a Dual Chamber Calibration Cell (Diamond General,. Corp.). Catalase reaction mixtures consisted of 50 mM sodium phosphate, pH 8.1, 0.9% sodium chloride, and salen manganese complex and H2O2 at the indicated concentrations. The temperature of the water-jacketed reaction chamber, as well as the calibration buffers, was maintained at 25±0.1° C. Data were collected at 1 sec intervals and stored-on a MacIntosh II computer using data acquisition hardware and software by Strawberry Tree, Inc. (Sunnyvale, Calif.). Dissolved oxygen concentrations were calculated as described previously (Del Rio et al. (1977) Anal. Biochem. 80: 409) based on a value of 2.5×10^−4 M oxygen for air-saturated buffer at 25° C. Linearity of the dissolved oxygen measurements within the experimental range was continued by determining the amount of oxygen generated from known quantities of H2O2 during exhaustive treatment with bovine liver catalase. Stock solutions of H2O2 were prepared by diluting a commercial 30% H2O2 solution in water and the H2O2 concentrations in these stocks were determined by absorbance at 240 nm, using a molar extinction coefficient of 44 (Stadtman, E R. et al. (1990) Proc. Natl. Acad. Sci. USA 87: 384). […] In the absence of salen manganese complex, H2O2 alone typically produced an early, relatively slow increase in signal. The slope of this increased signal was not proportional to H2O2 concentration (for example in one experiment, 1 and 10 Mm H2O2 yielded apparent rates of 12 and 14 μM oxygen per min, respectively) and may be due to an electrode artifact. […] Where presented, initial rates were calculated by determining the slope of the linear portion of time dependent plots of oxygen generation, usually comprising the first five seconds of the reaction. Unless otherwise indicated, these were corrected by subtracting the rate obtained with H2O2 alone. Where presented, endpoint oxygen generated was calculated from time-dependent plots, such as those shown in FIG. 14, as the difference between the baseline oxygen concentration immediately prior to substrate addition and the maximal oxygen concentration achieved during the course of the reaction. All reactions subjected to these calculations were run for a sufficient time to ensure that oxygen generation had ceased.
as §1

Data set [5] is described as follows: SOD activity, xanthine/xanthine oxidase with cytochrome C as acceptor (Example 2). The class given is biochemical. Conditions: for SOD: relative to C7 (C7 = 100). Here is the method: Superoxide dismutase (SOD) activity was assayed by following the inhibition of the reduction of an electron acceptor molecule in the presence of the free-radical generating system xanthine/xanthine oxidase (McCord et al. (1973) Superoxide and Superoxide Dismutase in “Oxidases and Related Redox Systems, vol. I, King et al. eds., University Park press, Baltimore, pp. 51-76). The assay mixture consisted of 50 mM sodium phosphate, pH 7.8, 120 μM xanthine, 0.2 units/ml xanthine oxidase, with acceptor molecule and salen manganese compound, as indicated. Assays were conducted at 27±0.2° C. using a water-jacketed cell holder in a Beckman DU7400 spectrophotometer. In most cases, oxidized cytochrome c, at 0.13 mg/ml, was employed as acceptor and its reduction was monitored spectrophotometrically at 550 nm. In some experiments, nitroblue tetrazolium (NBT), at 80 μM, was substituted for cytochrome c as the acceptor. NBT reduction was also monitored at 550 nm. An estimated extinction coefficient for NBT reduction, 20,800 M^−1cm^−1, determined empirically by exhaustive reduction of NBT in the reaction mixture described above, was employed where indicated. […] Conversion of xanthine to urate was calculated using ε290's of […] for urate and 4050 M^−1cm^−1 for xanthine. […] For each compound, at least four different concentrations were tested in duplicate.

The mark [6] stands for this setting: 10 μM salen manganese complex, 10 mM H2O2.
Where [7] appears, read: 29 units/ml bovine liver catalase added, 10 mM H2O2.

In the case of `CC(=O)[O][Mn]1[O]c2ccccc2C=NCCN=Cc2ccccc2[O]1` [Compound C31], the “MDA levels, percent of control” value is 108% in the data set with brain homogenates (1 μM), 22% in the data set on brain homogenates (5 μM), 6% in the data set on brain homogenates (10 μM) and 0% in the data set on brain homogenates (25 μM). This molecule also registered a Peroxidase rate in data set [1] of 21.3 ± 0.5 μM ABTS oxidized/min. This molecule yielded a Peroxidase in data set [1] of 114. Further, the “Cell viability, absorbance at 490 nm uncorrected for blank” value in data set [2] (2.5 μM) stood at 0.28 ± 0.01; in data set [2] (5 μM), 1.25 ± 0.09; in data set [2] (10 μM) it was 1.41 ± 0.08; in data set [2] (20 μM), 1.40 ± 0.06; in data set [2] (40 μM), 1.30 ± 0.03; in data set [2] (80 μM), 1.16 ± 0.09. Further, the “synergistic toxicity with t-BHP” value in data set [2] (80 μM) is given as “possible synergistic toxicity”. For the same molecule, in data set [3], the “protection against glucose and glucose oxidase (in words)” value is given as “about equally as effective as C7”. The Catalase rate in data set [4] (setting [6]) amounted to 131.9 ± 12.9 μM O2/min; in data set [4] (relative to C7 (C7 = 100)), 92. For the same molecule, the Endpoint in data set [4] (setting [6]) is on record as 29.6 ± 0.5 maximal μM O2. Further, the Catalase endpt. in data set [4] (relative to C7 (C7 = 100)) is listed as 81. In addition, in data set [5], the SOD stood at 101.
Take `COc1ccc2c(c1)C=NCCN=Cc1cc(OC)ccc1[O][Mn]([Cl])[O]2` [Compound C41]: in data set [1], the Peroxidase rate was 23.4 ± 2.6 μM ABTS oxidized/min. Further, in data set [1], the Peroxidase came to 136. For the same molecule, the “Cell viability, absorbance at 490 nm uncorrected for blank” value in data set [2] (2.5 μM) came to 0.28 ± 0.01; in data set [2] (5 μM) it was 0.28 ± 0.01; in data set [2] (10 μM), 1.37 ± 0.01; in data set [2] (20 μM), 1.44 ± 0.04; in data set [2] (40 μM) it was 1.35 ± 0.06; in data set [2] (80 μM), 1.07 ± 0.03. For the same molecule, the “toxicity of compound alone” value in data set [2] (80 μM, without t-BHP) is “equivalent toxicity with or without t-BHP”. The “protection against glucose and glucose oxidase” value in data set [3] (80 μM, glucose oxidase 0.019 units/ml) is on record as “highly protective”. Moreover, the “turnovers before the catalase reaction ceased” value in data set [4] (10 μM complex, 10 mM H2O2) is “about 16 turnovers”. Further, the Catalase rate was determined as 172.2 ± 2.2 μM O2/min in data set [4] (setting [6]) and 120 in data set [4] (relative to C7 (C7 = 100)). Further, the Endpoint in data set [4] (setting [6]) is recorded as 83.5 ± 0.9 maximal μM O2. This molecule returned a Catalase endpt. in data set [4] (relative to C7 (C7 = 100)) of 311. In addition, the SOD in data set [5] is 114.

B1: bovine liver catalase: bovine liver catalase enzyme used as reference (protein, UniProt P00432 2-527, looked up)
Catalase: ADNRDPASDQMKHWKEQRAAQKPDVLTTGGGNPVGDKLNSLTVGPRGPLLVQDVVFTDEMAHFDRERIPERVVHAKGAGAFGYFEVTHDITRYSKAKVFEHIGKRTPIAVRFSTVAGESGSADTVRDPRGFAVKFYTEDGNWDLVGNNTPIFFIRDALLFPSFIHSQKRNPQTHLKDPDMVWDFWSLRPESLHQVSFLFSDRGIPDGHRHMNGYGSHTFKLVNANGEAVYCKFHYKTDQGIKNLSVEDAARLAHEDPDYGLRDLFNAIATGNYPSWTLYIQVMTFSEAEIFPFNPFDLTKVWPHGDYPLIPVGKLVLNRNPVNYFAEVEQLAFDPSNMPPGIEPSPDKMLQGRLFAYPDTHRHRLGPNYLQIPVNCPYRARVANYQRDGPMCMMDNQGGAPNYYPNSFSAPEHQPSALEHRTHFSGDVQRFNSANDDNVTQVRTFYLKVLNEEQRKRLCENIAGHLKDAQLFIQKKAVKNFSDVHPEYGSRIQALLDKYNEEKPKNAVHTYVQHGSHLSAREKANL
Take B1: the “peroxidase activity toward ABTS” value in data set [1] (19 units/ml, pH 6.0, 7.1, 8.1) is listed as “no peroxidase activity”. Further, in data set [1] (setting [7]), the “reduction of initial rate of ABTS oxidation by C7” value is 55% and the “total ABTS oxidized by C7” value was determined as 18 µM. Moreover, the “protection against glucose and glucose oxidase” value in data set [3] (290 units/ml) is “full protection”. The “protection against glucose and glucose oxidase” value in data set [3] (ten-fold lower dose than 290 units/ml) is given as “only partially protective”. The “rate of oxygen production” value in data set [4] (19 units/ml, 2.3 mM H2O2) was around 0.33 mM/min. The “effect on rate of cytochrome C reduction by xanthine oxidase” value in data set [5] (29 units/ml) is “did not affect”.
